# pIC50: −log10 of the molar value.
# Experiments:
# [1] = molecular target: T1, DNA (cytosine-5)-methyltransferase 3B (Homo sapiens, UniProt Q9UBC3); assay: Inhibition of human recombinant DNMT3B expressed in baculovirus infected insect cells using CpG site containing internally quenched hairpin oligonucleotide DNA substrate and SAM incubated for 30 mins by kinetic fluorogenic assay; details: for pIC50: read-out: IC50
# [2] = molecular target: DNA (cytosine-5)-methyltransferase 1 (Homo sapiens, UniProt P26358); assay: Inhibition of human recombinant DNMT1 expressed in baculovirus infected insect cells using CpG site containing internally quenched hairpin oligonucleotide DNA substrate and SAM incubated for 30 mins by kinetic fluorogenic assay
# DNA (cytosine-5)-methyltransferase 1, sequence (P26358 whole entry): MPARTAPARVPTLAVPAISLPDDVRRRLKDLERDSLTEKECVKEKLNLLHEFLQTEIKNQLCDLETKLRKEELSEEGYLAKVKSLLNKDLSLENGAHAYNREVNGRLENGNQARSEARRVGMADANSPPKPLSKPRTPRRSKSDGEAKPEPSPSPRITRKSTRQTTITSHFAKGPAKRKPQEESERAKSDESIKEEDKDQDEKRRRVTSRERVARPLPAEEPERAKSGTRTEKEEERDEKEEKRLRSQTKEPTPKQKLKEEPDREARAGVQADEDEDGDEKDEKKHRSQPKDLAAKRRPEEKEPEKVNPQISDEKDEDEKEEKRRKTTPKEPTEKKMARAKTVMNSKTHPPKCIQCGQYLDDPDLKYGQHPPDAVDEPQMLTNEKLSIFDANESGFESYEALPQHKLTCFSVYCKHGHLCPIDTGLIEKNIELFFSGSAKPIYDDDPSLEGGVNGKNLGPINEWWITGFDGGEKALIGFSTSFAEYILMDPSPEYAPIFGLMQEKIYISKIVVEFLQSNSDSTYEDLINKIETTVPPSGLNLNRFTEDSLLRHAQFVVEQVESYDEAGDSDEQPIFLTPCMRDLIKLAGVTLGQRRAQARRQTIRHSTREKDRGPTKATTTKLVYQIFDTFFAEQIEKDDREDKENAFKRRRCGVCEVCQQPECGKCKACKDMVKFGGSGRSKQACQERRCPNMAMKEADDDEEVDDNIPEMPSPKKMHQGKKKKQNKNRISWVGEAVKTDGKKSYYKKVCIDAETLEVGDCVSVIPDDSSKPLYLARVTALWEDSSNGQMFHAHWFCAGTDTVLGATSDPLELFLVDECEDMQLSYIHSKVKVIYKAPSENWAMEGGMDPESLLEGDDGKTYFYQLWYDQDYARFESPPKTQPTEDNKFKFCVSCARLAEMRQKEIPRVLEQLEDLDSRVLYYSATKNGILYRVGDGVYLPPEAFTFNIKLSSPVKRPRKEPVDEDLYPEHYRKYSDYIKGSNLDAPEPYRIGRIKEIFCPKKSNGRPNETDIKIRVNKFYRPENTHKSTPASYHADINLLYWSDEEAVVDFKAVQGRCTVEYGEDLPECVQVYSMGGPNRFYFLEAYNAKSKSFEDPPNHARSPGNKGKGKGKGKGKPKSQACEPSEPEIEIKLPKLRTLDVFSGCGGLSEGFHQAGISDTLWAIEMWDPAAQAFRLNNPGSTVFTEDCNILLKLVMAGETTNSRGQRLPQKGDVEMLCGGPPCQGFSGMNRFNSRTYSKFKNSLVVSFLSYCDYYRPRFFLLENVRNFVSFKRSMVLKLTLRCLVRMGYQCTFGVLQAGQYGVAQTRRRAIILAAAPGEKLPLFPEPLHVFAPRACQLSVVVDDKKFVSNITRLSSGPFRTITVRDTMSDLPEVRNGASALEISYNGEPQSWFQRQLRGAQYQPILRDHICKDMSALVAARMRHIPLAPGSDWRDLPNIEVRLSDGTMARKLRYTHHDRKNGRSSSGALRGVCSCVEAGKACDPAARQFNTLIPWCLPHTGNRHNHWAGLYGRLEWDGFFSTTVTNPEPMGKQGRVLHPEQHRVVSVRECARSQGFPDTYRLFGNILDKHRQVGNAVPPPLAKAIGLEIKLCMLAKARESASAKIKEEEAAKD
# [3] = Cytotoxicity in African green monkey Vero cells assessed as reduction in cell viability; type: cell-based; details: chlorocebus sabaeus
# [4] = molecular target: T1, DNA (cytosine-5)-methyltransferase 3B; assay: Inhibition of human recombinant DNMT3B expressed in baculovirus infected insect cells by DRONE assay
# [5] = Toxicity in mouse; type: organism-based; details: in vivo
Structure (SMILES),IC50 [1],also measured
CN(Cc1ccc2cn[nH]c2c1)C(=O)CCc1cccc(-c2cc3ccccc3[nH]2)c1,Not Active,–
CN(Cc1ccc2cc[nH]c2c1)C(=O)CCc1cccc(-c2cc3ccccc3[nH]2)c1,Not Active,–
O=C(CCc1cccc(-c2nc3ccccc3[nH]2)c1)NCc1ccc2[nH]ncc2c1,Not Active,–
CN(Cc1ccc2cc[nH]c2c1)C(=O)CCc1cccc(-c2nc3ccccc3[nH]2)c1,Not Active,–
CN(Cc1ccc2[nH]ccc2c1)C(=O)CCc1cccc(-c2nc3ccccc3[nH]2)c1,Not Active,–
CN(Cc1ccc2cn[nH]c2c1)C(=O)CCc1cccc(-c2nc3ccccc3[nH]2)c1,Not Active,–
CN(Cc1ccc2[nH]ccc2c1)C(=O)CCc1cccc(-c2cc3ccccc3[nH]2)c1,Not Active,–
O=C(CSc1ncnc2sccc12)N1CCN(Cc2cc(=O)n3ccsc3n2)CC1,–,pIC50 [2]: 4.57
O=C(O)[C@H](Cc1c[nH]c2ccccc12)N1C(=O)c2ccccc2C1=O,–,pIC50 [1]: 6.05
C[C@@H]1O[C@@H](CC(=O)O)CC2=C1C(=O)c1c(O)cccc1C2=O [NANAFROCIN],–,CC50 [3]: 700 nM; pIC50 [1]: 5.82; pIC50 [4]: 6.14; LD50 [5]: 28 mg/kg
Cc1ccc2c(=O)c(-c3nc(-c4cccc(F)c4)no3)cn(CC(=O)Nc3ccc4c(c3)OCO4)c2n1,–,pIC50 [2]: 4.55
